Measurements: patent US11040962B2, “Pesticidally active pyrazole derivatives” (SYNGENTA PARTICIPATIONS AG, priority 2017, dated 2021)

Columns and labels:
Format in all cases: in vivo
[1] = system: Euschistus heros; experiment: Euschistus heros (neotropical brown stink bug) soybean leaf spray test; conditions: 120 h, application rate 200 ppm, N2 nymphs, 5 days after infestation, vs untreated, read-out: effect in at least one of the two categories (mortality or growth inhibition)
Experimental: Euschistus heros (Neotropical Brown Stink Bug)
Soybean leaves on agar in 24-well microtiter plates were sprayed with aqueous test solutions prepared from 10′000 ppm DMSO stock solutions. After drying the leaves were infested with N2 nymphs. The samples were assessed for mortality and growth inhibition in comparison to untreated samples 5 days after infestation. The following compounds gave an effect of at least 80% in at least one of the two categories (mortality or growth inhibition) at an application rate of 200 ppm: 1, 2, 3, 7, 8, 9, 12, 13, 14, 15, 17, 18, 21, 25, 26, 27, 28 and 29.

[2] = system: Tetranychus urticae; experiment: Tetranychus urticae (two-spotted spider mite) bean leaf disc spray test; conditions: foliar, 192 h, application rate 200 ppm, 8 days after infestation, read-out: mortality on mixed population (mobile stages)
Experimental: Tetranychus urticae (Two-Spotted Spider Mite):
Bean leaf discs on agar in 24-well microtiter plates were sprayed with aqueous test solutions prepared from 10′000 ppm DMSO stock solutions. After drying the leaf discs were infested with a mite population of mixed ages. The samples were assessed for mortality on mixed population (mobile stages) 8 days after infestation.

[3] = system: Plutella xylostella; experiment: Plutella xylostella (diamond back moth) artificial diet test; conditions: 120 h, application rate 200 ppm, L2 larvae, 5 days after infestation, vs untreated, read-out: effect in at least one of the two categories (mortality or growth inhibition)
Experimental: Plutella xylostella (Diamond Back Moth):
24-well microtiter plates with artificial diet were treated with aqueous test solutions prepared from 10′000 ppm DMSO stock solutions by pipetting. After drying, the plates were infested with L2 larvae (10 to 15 per well). The samples were assessed for mortality and growth inhibition in comparison to untreated samples 5 days after infestation. The following compounds gave an effect of at least 80% in at least one of the two categories (mortality or growth inhibition) at an application rate of 200 ppm: 1, 2, 3, 4, 7, 8, 9, 10, 11, 12, 13, 14, 15, 16, 17, 18, 19, 20, 21, 22, 23, 24, 26, 27, 28 and 29.

[4] = system: Spodoptera littoralis; experiment: Spodoptera littoralis (Egyptian cotton leaf worm) cotton leaf disc spray test; conditions: foliar, 72 h, application rate 200 ppm, L1 larvae, 3 days after infestation, vs untreated, read-out: control (at least one of mortality, anti-feedant effect, growth inhibition)
Experimental: Spodoptera littoralis (Egyptian Cotton Leaf Worm)
Cotton leaf discs were placed on agar in 24-well microtiter plates and sprayed with aqueous test solutions prepared from 10′000 ppm DMSO stock solutions. After drying the leaf discs were infested with five L1 larvae. The samples were assessed for mortality, anti-feedant effect, and growth inhibition in comparison to untreated samples 3 days after infestation. Control of Spodoptera littoralis by a test sample is when at least one of mortality, anti-feedant effect, and growth inhibition is higher than the untreated sample.

[5] = system: Diabrotica balteata; experiment: Diabrotica balteata (corn root worm) maize sprout spray test; conditions: 96 h, application rate 200 ppm, L2 larvae, 4 days after infestation, vs untreated, read-out: effect in at least one of the two categories (mortality or growth inhibition)
Experimental: Diabrotica balteata, (Corn Root Worm)
Maize sprouts, placed on an agar layer in 24-well microtiter plates were treated with aqueous test solutions prepared from 10′000 ppm DMSO stock solutions by spraying. After drying, the plates were infested with L2 larvae (6 to 10 per well). The samples were assessed for mortality and growth inhibition in comparison to untreated samples 4 days after infestation. The following compounds gave an effect of at least 80% in at least one of the two categories (mortality or growth inhibition) at an application rate of 200 ppm: 1, 2, 3, 4, 7, 8, 9, 11, 12, 13, 14, 15, 16, 17, 18, 19, 20, 21, 27, 28 and 29.

[6] = system: Thrips tabaci; experiment: Thrips tabaci (onion thrips) sunflower leaf disc spray test; conditions: foliar, 144 h, application rate 200 ppm, population of mixed ages, 6 days after infestation
Experimental: Thrips tabaci (Onion Thrips):
Sunflower leaf discs were placed on agar in 24-well microtiter plates and sprayed with aqueous test solutions prepared from 10′000 ppm DMSO stock solutions. After drying the leaf discs were infested with a Thrips population of mixed ages. The samples were assessed for mortality 6 days after infestation.

Cn1nc(C(F)(F)C(F)(F)F)c(C(F)(F)F)c1-n1cc(-c2cc(C(=O)NC3CC3)c(C#N)s2)nn1 [Compound 1, 2-cyano-N-cyclopropyl-5-[1-[2-methyl-5-(1,1,2,2,2-pentafluoroethyl)-4-(trifluoromethyl)pyrazol-3-yl]triazol-4-yl]thiophene-3-carboxamide]
≥ 80%: percent effect (mortality or growth inhibition) at 200 ppm [1] | mortality at 200 ppm [2] | percent effect (mortality or growth inhibition) at 200 ppm [3] | percent control (mortality, anti-feedant effect or growth inhibition) at 200 ppm [4] | percent effect (mortality or growth inhibition) at 200 ppm [5] | mortality at 200 ppm [6]

Cn1nc(C(F)(F)C(F)(F)F)c(C(F)(F)F)c1-n1cc(-c2cc(C(=O)NC3(C#N)CC3)c(C#N)s2)nn1 [Compound 4, 2-cyano-N-(1-cyanocyclopropyl)-5-[1-[2-methyl-5-(1,1,2,2,2-pentafluoroethyl)-4-(trifluoromethyl)pyrazol-3-yl]triazol-4-yl]thiophene-3-carboxamide]
≥ 80%: mortality at 200 ppm [2] | percent effect (mortality or growth inhibition) at 200 ppm [3] | percent control (mortality, anti-feedant effect or growth inhibition) at 200 ppm [4] | percent effect (mortality or growth inhibition) at 200 ppm [5] | mortality at 200 ppm [6]

Cn1nc(C(F)(F)C(F)(F)F)c(C(F)(F)F)c1-n1cc(-c2cc(C(=O)NC3(C#N)CC3)c(Cl)s2)nn1 [Compound 10, 2-chloro-N-(1-cyanocyclopropyl)-5-[1-[2-methyl-5-(1,1,2,2,2-pentafluoroethyl)-4-(trifluoromethyl)pyrazol-3-yl]triazol-4-yl]thiophene-3-carboxamide]
≥ 80%: percent effect (mortality or growth inhibition) at 200 ppm [3] | percent control (mortality, anti-feedant effect or growth inhibition) at 200 ppm [4] | mortality at 200 ppm [6]

CN(C(=O)c1cc(-c2cn(-c3c(C(F)(F)F)c(C(F)(F)C(F)(F)F)nn3C)nn2)sc1Cl)C1(C#N)CC1 [Compound 11, 2-chloro-N-(1-cyanocyclopropyl)-N-methyl-5-[1-[2-methyl-5-(1,1,2,2,2-pentafluoroethyl)-4-(trifluoromethyl)pyrazol-3-yl]triazol-4-yl]thiophene-3-carboxamide]
≥ 80%: percent effect (mortality or growth inhibition) at 200 ppm [3] | percent control (mortality, anti-feedant effect or growth inhibition) at 200 ppm [4] | percent effect (mortality or growth inhibition) at 200 ppm [5] | mortality at 200 ppm [6]

CCN(C(=O)c1cc(-c2cn(-c3c(C(F)(F)F)c(C(F)(F)C(F)(F)F)nn3C)nn2)sc1Cl)C1(C#N)CC1 [Compound 12, 2-chloro-N-(1-cyanocyclopropyl)-N-ethyl-5-[1-[2-methyl-5-(1,1,2,2,2-pentafluoroethyl)-4-(trifluoromethyl)pyrazol-3-yl]triazol-4-yl]thiophene-3-carboxamide]
≥ 80%: percent effect (mortality or growth inhibition) at 200 ppm [1] | percent effect (mortality or growth inhibition) at 200 ppm [3] | percent control (mortality, anti-feedant effect or growth inhibition) at 200 ppm [4] | percent effect (mortality or growth inhibition) at 200 ppm [5] | mortality at 200 ppm [6]

Cn1nc(C(F)(F)C(F)(F)F)c(C(F)(F)F)c1-c1cc(-c2cc(C(=O)NC3(C#N)CC3)c(C#N)s2)on1 [Compound 16, 2-cyano-N-(1-cyanocyclopropyl)-5-[3-[2-methyl-5-(1,1,2,2,2-pentafluoroethyl)-4-(trifluoromethyl)pyrazol-3-yl]isoxazol-5-yl]thiophene-3-carboxamide]
≥ 80%: mortality at 200 ppm [2] | percent effect (mortality or growth inhibition) at 200 ppm [3] | percent control (mortality, anti-feedant effect or growth inhibition) at 200 ppm [4] | percent effect (mortality or growth inhibition) at 200 ppm [5] | mortality at 200 ppm [6]

CCN(C(=O)c1cc(-c2cc(-c3c(C(F)(F)F)c(C(F)(F)C(F)(F)F)nn3C)no2)sc1C#N)C1(C#N)CC1 [Compound 18, 2-cyano-N-(1-cyanocyclopropyl)-N-ethyl-5-[3-[2-methyl-5-(1,1,2,2,2-pentafluoroethyl)-4-(trifluoromethyl)pyrazol-3-yl]isoxazol-5-yl]thiophene-3-carboxamide]
≥ 80%: percent effect (mortality or growth inhibition) at 200 ppm [1] | percent effect (mortality or growth inhibition) at 200 ppm [3] | percent control (mortality, anti-feedant effect or growth inhibition) at 200 ppm [4] | percent effect (mortality or growth inhibition) at 200 ppm [5] | mortality at 200 ppm [6]

Cn1nc(C(F)(F)C(F)(F)F)c(C(F)(F)F)c1-c1cc(-c2cc(C(=O)NC3CC3)c(Cl)s2)on1 [Compound 19, 2-chloro-N-cyclopropyl-5-[3-[2-methyl-5-(1,1,2,2,2-pentafluoroethyl)-4-(trifluoromethyl)pyrazol-3-yl]isoxazol-5-yl]thiophene-3-carboxamide]
≥ 80%: percent effect (mortality or growth inhibition) at 200 ppm [3] | percent control (mortality, anti-feedant effect or growth inhibition) at 200 ppm [4] | percent effect (mortality or growth inhibition) at 200 ppm [5]

CN(C(=O)c1cc(-c2cc(-c3c(C(F)(F)F)c(C(F)(F)C(F)(F)F)nn3C)no2)sc1Cl)C1CC1 [Compound 20, 2-chloro-N-cyclopropyl-N-methyl-5-[3-[2-methyl-5-(1,1,2,2,2-pentafluoroethyl)-4-(trifluoromethyl)pyrazol-3-yl]isoxazol-5-yl]thiophene-3-carboxamide]
≥ 80%: percent effect (mortality or growth inhibition) at 200 ppm [3] | percent control (mortality, anti-feedant effect or growth inhibition) at 200 ppm [4] | percent effect (mortality or growth inhibition) at 200 ppm [5] | mortality at 200 ppm [6]

CCN(C(=O)c1cc(-c2cc(-c3c(C(F)(F)F)c(C(F)(F)C(F)(F)F)nn3C)no2)sc1Cl)C1CC1 [Compound 21, 2-chloro-N-cyclopropyl-N-ethyl-5-[3-[2-methyl-5-(1,1,2,2,2-pentafluoroethyl)-4-(trifluoromethyl)pyrazol-3-yl]isoxazol-5-yl]thiophene-3-carboxamide]
≥ 80%: percent effect (mortality or growth inhibition) at 200 ppm [1] | percent effect (mortality or growth inhibition) at 200 ppm [3] | percent control (mortality, anti-feedant effect or growth inhibition) at 200 ppm [4] | percent effect (mortality or growth inhibition) at 200 ppm [5]

Cn1nc(C(F)(F)C(F)(F)F)c(C(F)(F)F)c1-c1cc(-c2cc(C(=O)NC3(C#N)CC3)c(Cl)s2)on1 [Compound 22, 2-chloro-N-(1-cyanocyclopropyl)-5-[3-[2-methyl-5-(1,1,2,2,2-pentafluoroethyl)-4-(trifluoromethyl)pyrazol-3-yl]isoxazol-5-yl]thiophene-3-carboxamide]
≥ 80%: percent effect (mortality or growth inhibition) at 200 ppm [3]

CN(C(=O)c1cc(-c2cc(-c3c(C(F)(F)F)c(C(F)(F)C(F)(F)F)nn3C)no2)sc1Cl)C1(C#N)CC1 [Compound 23, 2-chloro-N-(1-cyanocyclopropyl)-N-methyl-5-[3-[2-methyl-5-(1,1,2,2,2-pentafluoroethyl)-4-(trifluoromethyl)pyrazol-3-yl]isoxazol-5-yl]thiophene-3-carboxamide]
≥ 80%: percent effect (mortality or growth inhibition) at 200 ppm [3] | percent control (mortality, anti-feedant effect or growth inhibition) at 200 ppm [4] | mortality at 200 ppm [6]

CCN(C(=O)c1cc(-c2cc(-c3c(C(F)(F)F)c(C(F)(F)C(F)(F)F)nn3C)no2)sc1Cl)C1(C#N)CC1 [Compound 24]
≥ 80%: percent effect (mortality or growth inhibition) at 200 ppm [3] | percent control (mortality, anti-feedant effect or growth inhibition) at 200 ppm [4] | mortality at 200 ppm [6]

Cn1nc(C(F)(F)C(F)(F)F)c(C(F)(F)F)c1-c1cc(-c2cc(C(=O)NC3CC3)c(C#N)s2)cs1 [Compound 25, 2-cyano-N-cyclopropyl-5-[5-[2-methyl-5-(1,1,2,2,2-pentafluoroethyl)-4-(trifluoromethyl)pyrazol-3-yl]-3-thienyl]thiophene-3-carboxamide]
≥ 80%: percent effect (mortality or growth inhibition) at 200 ppm [1] | mortality at 200 ppm [2]
